Laboratory results published in patent publication US6689777B2 (Kenneth S. Warren Institute, priority 2001, dated 2004).
Like-named read-outs stand apart in the source and are kept apart here.

Assays:
[1] = system: synthetic hemozoin; experiment: Depolymerization of synthetic hemozoin in vitro; format: biochemical; settings: 50 mM test compound, acetate buffer pH 5.0, 37° C., 16 hours
Experimental: This activity is evaluated by incubating a suspension of monomer-free hemozoin at 37° C. with compounds of the present invention for 16 hours. After incubation, hemozoin is separated from any solubilized heme and soluble heme oligomers, the oligomers depolymerized, and the heme present in the supernatants determined.
The synthesis of synthetic hemozoin is carried out as previously described (26). In brief, 60 μmoles of hematin was dissolved in 8 ml of 0.1N NaOH. Following dissolution 49 mmoles of glacial acetic acid was added and the suspension heated at 70° C. overnight. The precipitate was then washed extensively with LPS-free water. In order to remove unreacted heme the precipitate was extracted with 0.1M sodium bicarbonate (pH 9.1) for three hours. The remaining insoluble material was recovered by centrifugation, resuspended in EtOH and transferred to sterile Eppendorf tubes. The material was washed several times in EtOH and finally resuspended in LPS-free double-distilled H2O. The hemozoin preparation was then tested for endotoxin by using the Limulus Amebocyte Lysate test following manufacturer's instructions. Although the preparation of LPS-free hemozoin from native or synthetic sources is not critical for in vitro depolymerization studies, it is critical for studies involving monocytes and animals (see Examples below). Small amounts of LPS can evoke a considerable cytokine response and interfere with interpretation of results. The amount of heme in the final product was determined from a small aliquot using the pyridine-hemochrome method as previously described (26). The preparations are stored at 4° C. until used.
A suspension of monomer-free hemozoin (equivalent to 2 mM free heme) as prepared above was incubated at 37° C. with […] test compound in total volume of 500 μl in acetate buffer (pH: 5.0) in siliconized Eppendorf tubes (Brinkmann Instruments, Westbury, N.Y.) for 16 hours. A control sample containing distilled H2O instead of hemozoin was included. The samples were centrifuged at 14,000 rpm (Eppendorf centrifuge model 5415C, Brinkmann Instruments, Westbury, N.Y.) for 20 min; then 225 μl supernatant was diluted in 175 μl acetate buffer (pH 5.0). Another 225 μl was added to 175 μl 0.5 M NaOH to dissolve possible oligomeric depolymerization products to monomers. Half of the pellet was washed twice for 2.5 hr in 200 μl 2.5% SDS (v/v) in dH2O, the other half was washed twice in 200 μl HCO3^− buffer (pH: 9.1). Both sample supernatants and SDS and HCO3^− buffer supernatants were centrifuged 14,000 rpm for 20 min. and supernatants were added to 10 μl sodium dithionite (200 mg/ml dH2O) to reduce the heme monomers in solution to Fe^2+. All samples were measured in triplicate at 540 nm (Model UV1601 spectrophotometer, Shimradzu Corp, Columbia, Md.). The OD obtained from the blind sample was subtracted from the OD of the hemozoin containing sample.

[2] = system: P. falciparum chloroquine resistant strain (CQR); experiment: P. falciparum growth in culture, chloroquine resistant strain ([3H]-hypoxanthine incorporation); format: cell-based; settings: Plasmodium falciparum, Table 3, read-out: IC50 vs. P. falc. in CQR
Experimental: (§1) To determine the effectiveness of the compounds of the present invention against the erythrocytic stage of the malarial parasite, P. falciparum was grown in human erythrocyte suspensions and maintained at 37° C. in candle jars according to the method of Trager and Jensen (15,16). Parasites were stage-synchronized by incubating mainly ring-stage infected erythrocytes in 5% sorbitol for 10 minutes at room temperature (17). Cultures undergo one growth cycle (2 days) before use. Strains used include the chloroquine sensitive strains D10 and HB3, and the chloroquine resistant isolates Dd2 and FCR.
(§2) Parasite growth was determined by measuring incorporation of [^3H]-hypoxanthine into the nucleic acids of the parasite (18). Effects of the compounds of the present invention on parasite growth was determined by measuring the reduction in incorporation of radiolabel as compared to controls. […] After 18 h the plates are harvested onto glass fiber filter 96 well plates using a cell harvester, dried, and the amount of radioactivity is determined. […]
as §2, with “as previously described (23).” for “(18).”, “The,” for “After 18 h the plates are harvested onto glass fiber filter 96 well plates using a cell harvester, dried, and the”, “was” for “is”

[3] = system: P. falciparum; experiment: P. falciparum growth in culture ([3H]-hypoxanthine incorporation); format: cell-based; settings: Plasmodium falciparum, Table 3, naphthothiazolium salts, in culture, read-out: IC50 vs. P. falc.
[4] = system: P. falciparum; experiment: as above; format: cell-based; settings: Table 2, aromatic bisguanylhydrazones; growth in culture, [3H]-hypoxanthine incorporation; read-out: IC50 vs. P. falc.
Experimental: as §1
Parasite growth was determined by measuring incorporation of [^3H]-hypoxanthine into the nucleic acids of the parasite (18). Effects of the compounds of the present invention on parasite growth was determined by measuring the reduction in incorporation of radiolabel as compared to controls. Briefly, assays are performed in 96-well microtiter plates. After 24 h of candle jar incubation at 37° C., [^3H]-hypoxanthine is added to each well. After 18 h the plates are harvested onto glass fiber filter 96 well plates using a cell harvester, dried, and the amount of radioactivity is determined. Drug IC50 values (molar concentration which decreases [^3H]-hypoxanthine incorporation by 50% as compared to drug-free controls) are calculated by extrapolation of the log dose-response curves using curve fitting software (Origin, Microcal Software, Northampton, Mass.).
Parasites were grown in A^+ human erythrocyte suspensions using RPMI-1640 (GIBCO, Gaithersburg, Md.) medium supplemented by 25 mM HEPES (pH 7.35), 0.2% NaHCO3 (23 mM), 0.2% (D)-Glucose and 10% human A^+ plasma and maintained at 37° C. in candle jars according to the method of Trager and Jensen (20,21) Parasites are stage synchronized by incubating mainly ring-stage infected erythrocytes in 5% sorbitol for 10 minutes at room temperature (22). Cultures undergo one growth cycle (2 days) before use. Strains used include the chloroquine sensitive strains D10 and HB3, and the chloroquine resistant isolates Dd2 and FCR.
Parasite growth was determined by measuring incorporation of [^3H]-hypoxanthine into the nucleic acids of the parasite as previously described (23). Effects of the compounds of the present invention on parasite growth was determined by measuring the reduction in incorporation of radiolabel as compared to controls. Briefly, assays were performed in 96-well microtiter plates, each well containing 200 μl of synchronized ring-stage infected erythrocytes in complete media and 50 μl of drug dilution or solvent. The final hematocrit was 1.5% and percent parasitemias range from 2-8%. After 24 h of candle jar incubation at 37° C., 2.5 μCi of [^3H]-hypoxanthine (17 Ci/mmol, Amersham, Arlington Heights, Ill.) in RPMI-1640 media supplemented with 25 mM HEPES (pH 7.35), 0.2% NaHCO3 (23 mM), 0.2% (D)-Glucose is added to each well. After 18 h the plates were harvested onto glass fiber filter 96 well plates using a cell harvester, dried, and 25 μl scintillation acid added per well. The, amount of radioactivity was determined. Drug IC50 values (molar concentration which decreases [^3H]-hypoxanthine incorporation by 50% as compared to drug-free controls) are calculated by extrapolation of the log dose-response curves using curve fitting software (Origin, Microcal Software, Northampton, Mass.). The effects on parasite grown by aromatic guanyllhydrazones, bisguanylhydrazones, naphthothiazolium salts, and other compounds of the instant invention, together with data on hemozoin depolymerization from Example 5, are shown in tables 1 through 4, respectively.

[5] = system: hemozoin ingested by human monocytes; experiment: Breakdown of macrophage-ingested hemozoin; format: cell-based; settings: 25 μM compound, FIG. 1
Experimental: A further evaluation of compounds was performed for activity against pathophysiological effects of hemozoin on the host, using hemozoin-laden macrophages in culture. Freshly-isolated human monocytes were suspended in medium and hemozoin at a concentration reflective of the amount of hemozoin released into circulation during schizogony. In order to maximize contact between hemozoin and monocytes, the cell preparations were centrifuged for 5 sec at 150×g. Ingestion of hemozoin is essentially complete by two hours. Cells were then washed, plated and kept in a humidified incubator. The test compounds of the present invention were added to the wells at concentrations ranging from 0 to 20 mM. Macrophage viability was determined by direct microscopic examination (gross morphology and detachment from the well), trypan blue exclusion method, and LDH release. […] At various times post-treatment (1 hour; 3 hours), cells were lysed, extensively washed and spun down (2500×g) to pellet any cellular components including hemozoin. The lysates were then treated with alkali to dissolve hemozoin to give monomeric heme (35). Monomeric heme was quantified as described above.
Human monocytes were freshly isolated from a buffy coat from a normal donor using Percoll gradients. […] Cells were solubilized at various time points and hemozoin content determined by luminol-elicited chemiluminescence.

[6] = system: freshly isolated human monocytes; experiment: Spontaneous and PMA-elicited oxidative burst by freshly isolated human monocytes; format: cell-based; settings: compound 25 uM, PMA 200 nM
Experimental: Furthermore, Arese and colleagues have data supporting the role of the ingested hemozoin in macrophage dysfunction. Therefore, the compounds of the present invention were evaluated to assess their ability to induce recovery of macrophage effector functions induced by hemozoin. Initially, the effect of the compounds of the present invention were evaluated on spontaneous and PMA-elicited oxidative burst by freshly isolated human monocytes. As will be elaborated upon in the Examples below, freshly isolated human monocytes were plated at 5×10^6 cells/ml, and allowed to equilibrate to 37° C. for 1 h. Compounds of the instant invention were added at a final concentration of 25 uM and PMA added to 200 nM final concentration. Cell suspension aliquots were taken at 30, 60, and 120 minutes, and 14 hours. The oxidative burst was measured by luminol-elicited chemiluminescence for 30 sec., and data expressed as counts per 0.5×10^6 cells.

IC50 [2] | IC50 [3] | Structure (SMILES) | % depol. hemoz. ([1]; Table 3) | % depol. hemoz. ([1]; Table 2) | IC50 [4] | hemozoin content of monocytes after phagocytosis of hemozoin (luminol-elicited chemiluminescence) [5] | oxidative burst (luminol-elicited chemiluminescence) [6]
500 nM | 75 nM | Cc1c(O)c2ccccc2c2c1sc(NCCCN1CCN(C)CC1)[n+]2C.[Cl-] [1,2-dihydro-1,4-dimethyl-2-[[3-(4-methyl-1-piperazinyl)propyl]imino]naphtho[1,2-d]thiazol-5-ol trihydrochloride] | 2.0% | – | – | – | –
– | – | Cc1cc(C=NNC(=N)N)c(O)c(C=NNC(=N)N)c1 [2,2′-[(2-hydroxy-5-methyl-1,3-phenylene)dimethylidyne]bis(hydrazinecarboximidamide)] | – | 2.3% | 200 nM | significant reduction of hemozoin | –
75 nM | 75 nM | Cc1c(O)c2ccccc2c2c1sc(NC1CCCCC1)[n+]2CCCN(C)C.Cl.[Cl-] [2-(cyclohexylimino)-1,2-dihydro-4-methyl-1-[3-(dimethylamino)propyl]naphtho[1,2-d]thiazol-5-ol dihydrochloride] | 2.2% | – | – | hemozoin-dissolving ability | strong inhibitor
